Results on 44 compounds are retold here after PMC10375536, “Discovery of High-Affinity Amyloid Ligands Using a Ligand-Based Virtual Screening Pipeline” (Journal of the American Chemical Society, 2023).

Read-outs that look alike come from different tables or passages of the source. Where only a bound is given, the exact number is not on record here.

The target of test [1] is Aβ(1-42). The note with it: cited from earlier work.
Test [2] concerns the target Aβ(1-42). As to conditions: cited from earlier work. The source holds these as a separate data set.
Test [3] has as its target T1, Aβ(1–42) fibrils (Homo sapiens, UniProt P05067).
T1 construct: Monomeric Aβ(1-42) (1 mg: Rockland Immunochemicals, Limerick, PA, Lot #31541); purchased Rockland Immunochemicals, Limerick, PA Lot #31541 (a lot number; no catalogue number given)
The experiment in a line: Thioflavin T (ThT) fluorescence competition assay. The note with it: for ThT displacement in competition screen: Aβ(1–42) fibrils (250 nM); for ThT displacement in competition screen / Kd: ThT (1.0 μM), 1× PBS pH 7.4, 25 °C; for Kd: Aβ(1–42) fibrils (500 nM). It counts as binding.

The mark [4] stands for this setting: against [3H]BF-227, ref 10.1177/1536012118796297.
Where [5] appears, read: against [125I]BF-180, ref 10.1523/JNEUROSCI.4456-03.2004.
Setting [6] is: against [125I]BF-180, ref 10.1385/JMN:24:2:247.
Where [7] appears, read: against [125I]BF-180, ref 10.1523/JNEUROSCI.1738-05.2005.
Setting [8] is: against [125I]IMSB, ref 10.1016/j.bmcl.2011.08.003.
Setting [9] is: against [125I]IMSB, ref 10.1021/jm010045q.
[10] abbreviates: average of fits from at least three independent experiments, read-out: Kd/nM.
Where [11] appears, read: read-out: –log(Kd/M) (converted).
Where [12] appears, read: direct binding, ref 10.1007/s00259-012-2261-2.
Where [13] appears, read: direct binding, ref 10.1021/jm010045q.

T1 sequence (P05067 672-713 limits assumed): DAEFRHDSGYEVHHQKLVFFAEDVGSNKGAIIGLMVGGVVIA

In the case of `COCCOCCOCCOC(=O)/C(C#N)=C/c1ccc2cc(N3CCCCC3)ccc2c1` [ANCA-11], in test [1] (direct binding, ref 10.1021/cn200018v), the Kd is 1400 nM. The Ki is a dissociation constant, usually derived from enzyme kinetics or from competition with a known ligand. Consider `CNc1ccc(/C=C/c2ccc(OCCOCCOCCF)nc2)cc1` [AV-45, Florbetapir], for which the Ki in test [2] (setting [4]) is 12 nM. As for `Cc1cc(/C=C/c2ccc(N(C)C)cc2)n2c1C=C1C=CC=[N+]1[B-]2(F)F` [BAP-1], in test [1] (direct binding, ref 10.1021/cn3000058), the Kd is 44.1 nM. For the compound `CCN(CC)c1ccc(/C=C/c2nc3ccccc3o2)cc1` [BF-125], in test [2] (setting [5]), the Ki was 4.9 nM. Consider `Nc1ccc(/C=C/c2nc3cc(F)ccc3o2)cc1` [BF-140], for which the Ki in test [2] (setting [6]) is 2.1 nM. With `CNc1ccc(/C=C/c2nc3cc(F)ccc3o2)cc1` [BF-145], the Ki in test [2] (setting [6]) was 4.5 nM.

`CNc1ccc(-c2ccc3ccccc3n2)cc1` [BF-158]: in test [2] (setting [7]), the Ki is over 5000 nM. As for `CNc1ccc(/C=C/c2nc3ccc(OCCF)cc3o2)cc1` [BF-168], in test [2] (setting [5]), the Ki is 6.4 nM.

In the case of `Nc1ccc(-c2ccc3ccccc3n2)cc1` [BF-170], in test [2] (setting [7]), the inhibition constant (Ki) is over 5000 nM. In the case of `CNc1ccc(/C=C/c2nc3cc(I)ccc3o2)cc1` [BF-180], the Kd in test [1] (direct binding, ref 10.1523/JNEUROSCI.4456-03.2004) was 10.6 nM. As to `CN(C)c1ncc(/C=C/c2nc3ccc(OCCF)cc3o2)s1` [BF-227], the inhibition constant Ki in test [2] (setting [4]) is 12 nM; in test [2] (against [125I]BF-180, ref 10.2967/jnumed.106.037556) it was 4.3 nM. Besides, the Kd was 15.7 nM in test [1] (direct binding, ref 10.1177/1536012118796297); 1.72 nM in test [1] (two-site model, Site 1, ref 10.1007/s00259-012-2261-2); 1.31 nM in test [1] (two-site model, Site 1, ref 10.1016/j.ejphar.2009.06.042); 0.82 nM in test [1] (two-site model, Site 1, ref 10.1021/acs.molpharmaceut.8b00229); 56.1 nM in test [1] (two-site model, Site 2, ref 10.1007/s00259-012-2261-2); 80 nM in test [1] (two-site model, Site 2, ref 10.1016/j.ejphar.2009.06.042). For the same compound, the Kd in test [1] (two-site model, Site 2, ref 10.1021/acs.molpharmaceut.8b00229) is 125 nM. Consider `O=C(O)c1cc(/N=N/c2ccc(-c3ccc(/N=N/c4ccc(O)c(C(=O)O)c4)cc3)cc2)ccc1O` [CG], for which the values for the inhibition constant Ki in test [2] (setting [8]) and in test [2] (setting [9]) were 0.43 nM and 0.4 nM, respectively.

As to `Oc1c(I)cc(Cl)c2cccnc12` [CQ], the Kd in test [1] (direct binding, ref 10.1016/j.bios.2017.06.030) was 86 nM. As to `C#CCN(C)CCCOc1ccc(Cl)cc1Cl` [Clorgyline], the Ki in test [2] (setting [4]) is over 9000 nM.

For `COc1cc(/C=C/C(=O)CC(=O)/C=C/c2ccc(O)c(OC)c2)ccc1O` [Curcumin], in test [2] (setting [8]), the inhibitory constant (Ki) was 3.57 nM.

On to `CN(CCCCc1ccccc1)C(=O)Nc1ccc2c(c1)OCC(=O)N2C` [E163], for which the “ThT displacement in competition screen” value in test [3] was “displaced the greatest quantity of ThT”. Besides, the values for the Kd in test [3] (setting [10]) and in test [3] (setting [11]) were 200 ± 100 nM and 158 nM, respectively. As to `Cc1ccc(C)c2c(C)c(C(=O)N3CCCc4c(OCC(N)=O)cccc43)oc12` [E197], the “ThT displacement in competition screen” value in test [3] is listed as “displaced the greatest quantity of ThT”. The Kd in test [3] (setting [10]) is 600 ± 300 nM; in test [3] (setting [11]), 501 nM. Turning to `CCOc1ccc(CCN(C)C(=O)Nc2ccc3c(c2)CCC(=O)N3C)cc1` [E363], the “ThT displacement in competition screen” value in test [3] is on record as “displaced the greatest quantity of ThT”. Further, the figures for the Kd in test [3] (setting [10]) and in test [3] (setting [11]) were 20 ± 10 nM and 25.1 nM, respectively. For `CCOc1ccccc1OCC(=O)Nc1ccc(-c2ncc3n2CCCC3)cc1` [E570], in test [3], the “ThT displacement in competition screen” value is “displaced the greatest quantity of ThT”. Also, the values for the Kd in test [3] (setting [10]) and in test [3] (setting [11]) were 20 ± 10 nM and 25.1 nM, respectively. The “bound ThT displaced” value in test [3] (titration into Aβ(1–42) fibrils (500 nM) and ThT (1.0 μM)) was “about half”. For the compound `COc1cc(F)c(C(C)NC(=O)NCCN2c3ccccc3CC2C)cc1OC` (stereo not shown) [E704], the “ThT displacement in competition screen” value in test [3] is given as “displaced the greatest quantity of ThT”. For the same compound, in test [3] (setting [10]), the Kd was found to be 56 ± 6 nM. For the compound `CC(=C(C#N)C#N)c1ccc2cc(N(C)CCF)ccc2c1` [FDDNP], in test [1] (setting [12]), the Kd was 5.52 nM. Regarding `CN(C)c1ccc(/N=N/c2nc3ccc(OCCOCCOCCF)cc3s2)cc1` [FPPDB], the Ki in test [2] (against ThS, ref 10.1021/ml200230e) is 20 nM.

Regarding `CNc1ccc(-c2cc3cc(O)ccc3o2)c(F)n1` [Flutafuranol], in test [2] (setting [4]), the inhibition constant Ki was 42 nM. Regarding `CNc1ccc(-c2nc3ccc(O)cc3s2)cc1F` [Flutemetamol], in test [2] (setting [4]), the Ki is 65 nM. Turning to `Cc1cc(-c2ccc(/N=N/c3ccc4c(S(=O)(=O)O)cc(S(=O)(=O)O)c(N)c4c3O)c(C)c2)ccc1/N=N/c1ccc2c(S(=O)(=O)O)cc(S(=O)(=O)O)c(N)c2c1O` [Honson2b (Evan's blue), Evan's blue], the Ki in test [2] (against ThS, ref 10.1016/j.nbd.2007.07.018) is 180 nM. `CN(C)c1ccc(-c2ccc3cc(-c4nc5ccccc5s4)c(=N)oc3c2)cc1` [ICTAD-1]: the Kd in test [1] (direct binding, ref 10.1039/d0sc02060e) is 3780 nM. For the compound `COc1ccc(C=Cc2ccc(C=Cc3ccc(OC)c(C(=O)O)c3)c(I)c2)cc1C(=O)O` [IMSB], the Ki in test [2] (setting [9]) is 0.8 nM. Moreover, the Kd in test [1] (direct binding, ref 10.1021/ja0167147) was 0.73 nM. For the compound `Cc1c(OCC(F)(F)F)ccnc1C[S+]([O-])c1nc2ccccc2[nH]1` (stereo not shown) [LNS], the Kd in test [1] (direct binding, ref 10.1021/cn500103u) was 11 nM.

On to `CC(C)CC1=[O+][B-](F)(F)OC(/C=C/c2ccc3cc(N(C)C)ccc3c2)=C1` [NAP-OB], for which the Kd in test [1] (direct binding, ref 10.1016/j.bioactmat.2021.10.047) is 0.62 nM.

As for `CN(C)c1ccc(/C=C/c2nc3ccc(I)cc3[nH]2)cc1` [SBIM-3], in test [1] (direct binding, ref 10.1016/j.bmc.2013.02.054), the Kd was 820 nM.

With `COCCOCCn1c2ccccc2c2cc(/C=C/c3cc[n+](C)c4ccccc34)ccc21` [SLM], in test [1] (direct binding, ref 10.1021/acsomega.8b00475), the Kd was 11400 nM. For `CN(C)c1ccc(/C=C/c2ccc3ccc(OCCF)cc3n2)cc1` [SQ3], in test [2] (against [125I]ISQ, ref 10.1021/acsmedchemlett.2c00279), the Ki is 230 nM. Consider `Nc1ccc(-c2ccc3cc(OCCF)ccc3n2)cc1` [THK-523], for which the Kd in test [1] (setting [12]) was 30.3 nM; in test [1] (direct binding, ref 10.1093/brain/awr038) it was 20.7 nM. With `CN(C)c1ccc(-c2ccc3cc(OCC(O)CF)ccc3n2)cc1` (stereo not shown) [THK-5105], the Kd in test [1] (direct binding, ref 10.2967/jnumed.112.117341) was 35.9 nM. Take `CN(C)c1ccc(-c2nc3ccc(I)cc3s2)cc1` [TZDM]: in test [2] (setting [9]), the Ki is over 5000 nM. In addition, the Kd in test [1] (setting [13]) is 0.14 nM.

With `Cc1ccc2c(c1)sc(-c1ccc(N(C)C)cc1)[n+]2C` [ThT, Thioflavin T], in test [2] (setting [9]), the Ki was over 4000 nM. The Kd was 665 nM in test [1] (direct binding, ref 10.1002/chem.201800501); 2560 nM in test [1] (direct binding, ref 10.1016/j.bmc.2011.09.065); 117 nM in test [1] (direct binding, ref 10.1021/acs.analchem.2c02532); 32 nM in test [1] (direct binding, ref 10.1021/acs.jmedchem.5b00571); 1940 nM in test [1] (direct binding, ref 10.1021/acschemneuro.6b00380); 430 nM in test [1] (direct binding, ref 10.1021/acschemneuro.6b00450).

Take `CC1(C)C(/C=C/C2=C(c3ccc(CCC(=O)O)cc3)C(=C/C=C3/N(CCC[N+](C)(C)C)c4ccc(S(=O)(=O)O)cc4C3(C)C)/CCC2)=[N+](CCC[N+](C)(C)C)c2ccc(S(=O)(=O)O)cc21` [ZW800-1C]: the Kd in test [1] (direct binding, ref 10.1038/s41551-023-01003-7) is 78.9 nM. Regarding `CN(C)c1ccc(-c2cc(-c3ccnc(Br)c3)[nH]n2)cc1` [[11C]MODAG-001], in test [1] (direct binding, ref 10.1007/s00259-020-05133-x), the Kd was 20 nM.

`CN(C)c1ccc(/N=N/c2nc3ccc(OCCOCCOCCF)cc3s2)cc1` [[18F]FPPDB]: in test [1] (direct binding, ref 10.1021/ml200230e), the Kd was 45.4 nM. Turning to `CN(C)c1ccc(C=CC(=O)c2ccc(I)cc2)cc1` [[125I]DMIC], the Kd in test [1] (direct binding, ref 10.1016/j.bmc.2007.07.052) is 4.2 nM.

For the compound `COc1ccc(/C=C/c2ccc(/C=C/c3ccc(OC)c(C(=O)O)c3)c(I)c2)cc1C(=O)O` [[125I]IMSB], the Kd in test [1] (setting [13]) was 0.73 nM. As for `O=[N+]([O-])c1ccc2c(c1)Sc1cc(OC/C=C/I)ccc1N2` [[125I]SIL23], the Kd in test [1] (direct binding, ref 10.1371/journal.pone.0055031) is 635 nM. On to `CN(C)c1ccc(-c2nc3ccc(I)cc3s2)cc1` [[125I]TZDM], for which the Kd in test [1] (direct binding, ref 10.1016/j.bmc.2011.03.029) was 0.45 nM; in test [1] (direct binding, ref 10.5012/bkcs.2008.29.9.1765), 0.13 nM. Regarding `O=C(O)c1cc(C=Cc2ccc(C=Cc3ccc(O)c(C(=O)O)c3)c(I)c2)ccc1O` [[125]ISB], the Kd in test [1] (setting [13]) was 0.15 nM.
